Laboratory results taken from patent publication US20190008757A1, “DERMATOLOGICAL OR COSMETIC COMPOSITIONS CONTAINING A POLYPHENOL?ENRICHED EXTRACT OF VITEX NEGUNDO” (Laboratoires Expanscience, priority 2016, published 2019).

Experiments:
Prostaglandin E2 (PGE2) = assay: Assay of PGE2 in keratinocytes treated with 10 μg/mL PMA; format: cell-based, human; settings: 0.1 μM; for PGE2 Mean / PGE2 Increase (%): 24 h pretreatment; for PGE2 Mean: then 10 μg/mL PMA overnight; for PGE2 Increase (%): versus PMA
Description: (§1) Release of the cytokines Interleukin-1 beta (IL1β) and Prostaglandin E2 (PGE2) was analysed. […] Inflammation was then induced by addition of 10 μg/mL PMA overnight. An assay of IL1β and PGE2 was then performed in the cell culture supernatants. In parallel, the number of biologically active cells was determined by a neutral red assay. The amount of cytokine measured for each condition was normalised to the number of living cells determined by the neutral red assay. The significance of the results was verified by a one-factor analysis of variance followed by Tukey's test (GraphPad PRISM software version 5.02, GraphPad Software, San Diego Calif. USA).

[1] = test system: Interleukin-1 beta (IL1β); assay: Assay of IL1β in keratinocytes treated with 10 μg/mL PMA; format: cell-based, human; settings: 0.1 μM, 24 h pretreatment; for IL1Beta Mean: then 10 μg/mL PMA overnight; for IL1Beta Increase (%): versus PMA
Description: as §1

[2] = test system: Normal human keratinocytes; assay: Production of reactive oxygen species (DCFH-DA) in keratinocytes treated with H2O2; format: cell-based; settings: for ROS Mean: 24 h preincubation and during 100 μM H2O2 20 min, normalised to living cells; for ROS Increase (%): versus 100 μM H2O2; for ROS production following H2O2 treatment (in words): antioxidant references, 10 μM quercetin or 500 μM vitamin C
Description: The antioxidant effect of the polyphenol-enriched extract of Vitex negundo is evaluated using the incorporation of DCFHDA (2′,7′-dichlorofluorescin diacetate) into keratinocytes in culture. This molecule is a nonfluorescent marker in an unoxidised state. Under oxidising conditions (in this case stress induced by hydrogen peroxide, H2O2), DCFHDA will be degraded to DCF, a molecule which will emit fluorescence. […] Normal human keratinocytes were preincubated for 24 hours in the presence of 0.0005%, 0.001% and 0.005% (w/v) concentrations of the polyphenol-enriched extract of Vitex negundo, and 0.016%, 0.03% and 0.16% monopropylene glycol (controls corresponding to the solvent concentrations contained in the concentrations of Vitex negundo extract studied), 10 μM quercetin or 500 μM vitamin C (the latter two molecules serving as antioxidant reference). The cells are then treated for 1 hour in the presence of 0.5 mM DCFH-DA. Oxidation is induced by addition of 100 μM H2O2 for 20 minutes. A second treatment with the tested products is performed simultaneously with H2O2 stress (at the same concentrations as the pretreatment). Lastly, a measurement of fluorescence density (DFU) corresponding to the amount of ROS is performed using a microplate reader. In parallel, the number of biologically active cells was determined by a neutral red assay. The amount of ROS (reactive oxygen species) measured for each condition was normalised to the number of living cells determined by the neutral red assay. The significance of the results was verified by a one-factor analysis of variance followed by Tukey's test (GraphPad PRISM software version 5.02, GraphPad Software, San Diego Calif. USA).

[3] = test system: human sensory neuron/old keratinocyte cocultures; assay: Neurite length of sensory neurons in neuron/keratinocyte co-cultures; format: cell-based; settings: 50 ng/mL
Description: Sensory neurons are derived from hiPS cells obtained from human fibroblasts. hiPS cells were cocultured with keratinocytes […]. The co-cultures were treated with the Vitex negundo extract at various concentrations (0.003%, 0.001%, 0.0005%, 0.0001%, 0.00005%, 0.00001% (w/v)), with 0.1% monopropylene glycol (extraction solvent control) and with 50 ng/mL nerve growth factor (NGF) serving as positive reference for dendrite elongation.
After 6 days of co-culture, the cells were fixed with 2% paraformaldehyde solution and then labelled with an anti-β-tubulin antibody. Labelling was observed using a fluorescence microscope and 20 images were acquired per co-culture. The length of the sensory neuron projections was measured and normalised by the number of labelled cell bodies. All statistics were done using the t-test and the ANOVA test (*p<0.05; **p<0.01; ***p<0.001).

COc1ccc2c(c1)c(CC(=O)O)c(C)n2C(=O)c1ccc(Cl)cc1 [Indometacin, indomethacin]
PGE2 Mean (Prostaglandin E2 (PGE2)): 416.328 (pg/mL)/OD neutral red | PGE2 Increase (%) (Prostaglandin E2 (PGE2)): −82% | release of PGE2 (in words) (Prostaglandin E2 (PGE2); pretreatment for 24 hours): significantly decreased | IL1Beta Mean [1]: 0.172 (pg/mL)/OD neutral red | IL1Beta Increase (%) [1]: −5%

O=c1c(O)c(-c2ccc(O)c(O)c2)oc2cc(O)cc(O)c12 [quercetin]
ROS Mean ([2]; 10 μmol/L): 24411 fluorescence units | ROS Increase (%) ([2]; 10 μmol/L): −82% | ROS production following H2O2 treatment (in words) [2]: significantly decreased

NGF: nerve growth factor (NGF) serving as positive reference for dendrite elongation
total neurite length and neurite length per cell (in words) [3]: significantly increased | Neurite length per cell ([3]; 6 days of co-culture, control cells 143 ± 16): 212 ± 23 (*) arbitrary units | Total neurite length ([3]; 6 days of co-culture, control cells 6865 ± 633): 10393 ± 1849 (**) arbitrary units

O=C1O[C@H]([C@@H](O)CO)C(O)=C1O [vitamin C]
ROS Mean ([2]; 500 μM): 11940 fluorescence units | ROS Increase (%) ([2]; 500 μM): −91% | ROS production following H2O2 treatment (in words) [2]: significantly decreased

C[C@@H]1C[C@H]2[C@@H]3CCC4=CC(=O)C=C[C@]4(C)[C@@]3(F)[C@@H](O)C[C@]2(C)[C@@]1(O)C(=O)CO [Dexamethasone, dexamethasone]
PGE2 Mean (Prostaglandin E2 (PGE2)): 1339.332 (pg/mL)/OD neutral red | PGE2 Increase (%) (Prostaglandin E2 (PGE2)): −43% | IL1Beta Mean [1]: 0.120 (pg/mL)/OD neutral red | IL1Beta Increase (%) [1]: −34%
